From ChEMBL document CHEMBL3351833, “Synthesis and Biological Evaluation of Pyrazolo[1,5-a]pyrimidine Compounds as Potent and Selective Pim-1 Inhibitors” (ACS Med Chem Lett, 2015)

How the values were obtained:
[1] = molecular target: Serine/threonine-protein kinase pim-2 (Homo sapiens, UniProt Q9P1W9); assay: Inhibition of Pim2 (unknown origin) using luciferase-luciferin based ATP detection reagent by Kinase-Glo assay
[2] = molecular target: Serine/threonine-protein kinase pim-1 (Homo sapiens, UniProt P11309); assay: Inhibition of Pim1 (unknown origin) using luciferase-luciferin based ATP detection reagent by Kinase-Glo assay
[3] = molecular target: T1, Receptor-type tyrosine-protein kinase FLT3 (Homo sapiens, UniProt P36888); assay: Inhibition of human Flt3 (unknown origin)
T1 sequence (P36888 whole entry): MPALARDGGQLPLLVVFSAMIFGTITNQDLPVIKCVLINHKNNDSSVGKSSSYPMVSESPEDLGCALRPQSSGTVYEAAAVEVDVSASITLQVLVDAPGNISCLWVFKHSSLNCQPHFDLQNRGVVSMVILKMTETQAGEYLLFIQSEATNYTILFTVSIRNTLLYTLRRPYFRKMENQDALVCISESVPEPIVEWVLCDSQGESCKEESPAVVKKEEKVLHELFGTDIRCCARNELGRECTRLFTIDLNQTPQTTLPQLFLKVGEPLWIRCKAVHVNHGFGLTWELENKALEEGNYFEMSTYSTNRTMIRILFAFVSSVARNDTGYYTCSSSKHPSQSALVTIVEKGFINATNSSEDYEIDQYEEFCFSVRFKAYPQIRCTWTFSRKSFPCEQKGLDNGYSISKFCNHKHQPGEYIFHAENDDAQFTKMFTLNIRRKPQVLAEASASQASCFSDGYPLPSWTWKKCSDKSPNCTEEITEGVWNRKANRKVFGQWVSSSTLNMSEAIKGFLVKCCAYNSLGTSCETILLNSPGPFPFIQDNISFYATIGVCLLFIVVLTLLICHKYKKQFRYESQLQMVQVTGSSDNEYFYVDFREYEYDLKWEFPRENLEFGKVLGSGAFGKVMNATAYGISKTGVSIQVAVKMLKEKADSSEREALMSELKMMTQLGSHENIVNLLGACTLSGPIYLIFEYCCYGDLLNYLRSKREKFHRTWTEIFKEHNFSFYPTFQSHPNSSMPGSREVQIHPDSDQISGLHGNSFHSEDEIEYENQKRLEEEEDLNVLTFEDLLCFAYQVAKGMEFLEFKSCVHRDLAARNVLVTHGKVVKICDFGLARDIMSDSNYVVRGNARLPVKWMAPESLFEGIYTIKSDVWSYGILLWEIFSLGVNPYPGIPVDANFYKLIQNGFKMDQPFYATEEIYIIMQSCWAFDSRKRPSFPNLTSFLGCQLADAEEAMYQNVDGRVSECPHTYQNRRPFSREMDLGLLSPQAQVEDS

Chain of Serine/threonine-protein kinase pim-2 (Q9P1W9 whole entry): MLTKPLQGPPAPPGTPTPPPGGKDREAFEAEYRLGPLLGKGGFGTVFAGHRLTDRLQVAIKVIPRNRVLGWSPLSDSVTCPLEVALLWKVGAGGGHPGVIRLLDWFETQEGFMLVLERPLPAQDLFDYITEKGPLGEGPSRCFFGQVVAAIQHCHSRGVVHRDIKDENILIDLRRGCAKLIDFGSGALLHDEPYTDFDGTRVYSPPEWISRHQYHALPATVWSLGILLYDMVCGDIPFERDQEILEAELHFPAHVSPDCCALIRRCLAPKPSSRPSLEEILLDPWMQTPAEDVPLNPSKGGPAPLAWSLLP
Chain of Serine/threonine-protein kinase pim-1 (P11309 whole entry): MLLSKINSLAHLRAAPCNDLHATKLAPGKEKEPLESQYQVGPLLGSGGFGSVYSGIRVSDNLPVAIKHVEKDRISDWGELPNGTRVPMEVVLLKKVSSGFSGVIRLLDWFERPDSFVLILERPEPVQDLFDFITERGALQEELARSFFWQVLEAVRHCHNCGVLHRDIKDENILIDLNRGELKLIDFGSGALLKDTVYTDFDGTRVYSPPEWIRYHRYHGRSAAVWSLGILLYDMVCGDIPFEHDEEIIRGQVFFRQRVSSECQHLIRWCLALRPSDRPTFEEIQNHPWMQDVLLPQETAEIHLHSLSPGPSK

Row | Structure (SMILES) | IC50 ([1]; read-out: IC50) | further results
1 | CN1CCC(CNc2ccn3ncc(-c4cccc(OC(F)(F)F)c4)c3n2)CC1 | 1490 nM | 
2 | O=S1(=O)CCC(CNc2ccn3ncc(-c4cccc(Cl)c4)c3n2)CC1 | 2070 nM | 
3 | N[C@H]1CCCN(c2ccn3ncc(-c4cccc(OC(F)(F)F)c4)c3n2)C1 | 987 nM | 
4 | FC(F)(F)c1cccc(-c2cnn3ccc(NCC4CCOCC4)nc23)c1 | 1970 nM | IC50 ([2]; read-out: IC50): 149 nM
5 | O=S1(=O)CCC(Nc2ccn3ncc(-c4cccc(C(F)(F)F)c4)c3n2)CC1 |  | IC50 [2]: Not Active; IC50 [1]: Not Active
6 | CC(C)(O)[C@H]1CC[C@H](Nc2ccn3ncc(-c4cccc(OC(F)(F)F)c4)c3n2)CC1 | 4090 nM | 
7 | O=C1CCN(c2ccn3ncc(-c4cccc(Cl)c4)c3n2)CC1 | 564 nM | IC50 ([2]; read-out: IC50): 168 nM
8 | C[C@]1(O)CC[C@H](Nc2ccn3ncc(-c4cccc(OC(F)(F)F)c4)c3n2)CC1 | 2040 nM | 
9 | C[C@]1(O)CC[C@H](Nc2ccn3ncc(-c4cccc(C(F)(F)F)c4)c3n2)CC1 | 639 nM | 
10 | O[C@H]1CC[C@H](Nc2ccn3ncc(-c4cccc(OC(F)(F)F)c4)c3n2)CC1 | 269 nM | IC50 [3]: 157 nM
11 | CO[C@H]1CC[C@H](Nc2ccn3ncc(-c4cccc(OC(F)(F)F)c4)c3n2)CC1 | 3620 nM | 
12 | N[C@H]1CC[C@H](Nc2ccn3ncc(-c4cccc(OC(F)(F)F)c4)c3n2)CC1 | 100 nM | 
